# Measurements taken from article PMC6271520, “Isolation and Characterization of an α-Glucosidase Inhibitor from Musa spp. (Baxijiao) Flowers” (Molecules, 2014).
# Like-named read-outs stand apart in the source and are kept apart here.
# What was measured:
# [1] = target: T1, α-Glucosidase from Bacillus stearothermophilus (Geobacillus stearothermophilus, UniProt A0ACH1E9U3); assay: α-glucosidase inhibitory activity assay (pNPG substrate, PNP release at 405 nm); assay type: biochemical; settings: for IC50: pH 6.8, 37 °C, 2.5 mmol/L pNPG
# T1 sequence (A0ACH1E9U3 entry or part of it): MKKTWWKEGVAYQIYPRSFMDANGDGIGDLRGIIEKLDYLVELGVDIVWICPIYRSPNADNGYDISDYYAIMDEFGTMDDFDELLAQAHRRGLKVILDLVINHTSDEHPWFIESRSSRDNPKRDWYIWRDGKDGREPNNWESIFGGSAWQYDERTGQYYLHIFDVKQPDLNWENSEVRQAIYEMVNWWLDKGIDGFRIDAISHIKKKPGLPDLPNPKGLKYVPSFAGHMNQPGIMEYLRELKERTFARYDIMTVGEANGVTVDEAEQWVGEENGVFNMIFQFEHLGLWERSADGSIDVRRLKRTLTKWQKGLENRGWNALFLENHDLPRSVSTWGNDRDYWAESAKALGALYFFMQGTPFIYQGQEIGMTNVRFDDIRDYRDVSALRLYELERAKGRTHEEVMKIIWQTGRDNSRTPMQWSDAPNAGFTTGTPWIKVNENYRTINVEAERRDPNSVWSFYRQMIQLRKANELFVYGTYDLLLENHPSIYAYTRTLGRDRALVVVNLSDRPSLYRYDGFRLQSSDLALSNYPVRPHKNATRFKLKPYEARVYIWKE
# Protocol: Louis, MO, USA). […] All the reagents were of analytical grade. […] Then 0.5 mL of 2.5 mmol/L p-nitrophenyl-α-D-glucopyranoside as the substrate was added to the mixture to start the reaction. The reaction was incubated at 37 °C for 15 min and stopped by adding 1 mL 0.2 mol/L sodium carbonate solution. The α-glucosidase activity was determined by measuring the release of PNP at 405 nm. For the inhibitory activity assay, crude ethanol extracts were dissolved in 50% aqueous dimethyl sulfoxide, while the chloroform, ethyl acetate, and n-butanol fractions and puriﬁed compounds were dissolved in dimethyl sulfoxide. […] The inhibition of the test sample on α-glucosidase was calculated as follows: […] where Acontrol: Absorbance for 100% enzyme activity (+enzyme), Asample: Test sample (+enzyme + inhibitor) and Abackground: Inhibitor background absorbance (−enzyme + inhibitor).
# [2] = target: T1, α-Glucosidase from Bacillus stearothermophilus; assay: Lineweaver–Burk plot analysis of inhibition kinetics of α-glucosidase; assay type: biochemical; settings: for mode of inhibition: Lineweaver–Burk plot, varying pNPG; for Ki: from Vmax at 12.5 and 50.0 mg/L (compound 5), 400 and 800 mg/L (compounds 3 and 4)
# Protocol: The mechanism of the binding of compounds 3, 4 and 5 to α-glucosidase was further studied.
# The Ki value was calculated using the values of Vmax obtained at 12.5 and 50.0 mg/L for compound 5 and the values of Vmax obtained at 400 and 800 mg/L for compounds 3 and 4, respectively.
# To determine the kinetic mode of inhibition of isolated α-glucosidase inhibitors, Lineweaver–Burk plot analysis was performed. This kinetics study was carried out in the presence and absence of inhibitors with varying concentrations of 4-NPGP as the substrate. The mode of inhibition of the test compounds was assessed on the basis of the inhibitory effects on Km (dissociation constant) and Vmax (maximum reaction velocity) of the enzyme determined using a Lineweaver-Burk plot, which is the double reciprocal plot of the enzyme reaction velocity (V) versus the substrate (p-nitrophenyl β-D-glucopyranoside, pNPG) concentration (1/V versus 1/[pNPG]).
# α-glucosidase [3] = target: α-glucosidase; design: method as in doi:10.1016/j.phytol.2013.08.005; settings: β-sitosterol isolated from Chrozophora plicata; cited from earlier work
# α-glucosidase [4] = target: α-glucosidase; design: method as in PMID 17270224; settings: vanillic acid from stem bark of Fagara tessmannii; cited from earlier work
# [5] = read-out: IC50 (mg/L) (converted)
"IC50 [1, 5]",Structure (SMILES),IC50 ([1]; read-out: IC50 (mg/L)),mode of inhibition [2],also measured
,"COc1cc(/C=C/C(=O)O)ccc1O [Compound 2, Ferulic acid]",6480 µM,,
,"CC[C@H](CC[C@@H](C)[C@H]1CC[C@H]2[C@@H]3CC=C4C[C@@H](O)CC[C@]4(C)[C@H]3CC[C@]12C)C(C)C [Compound 3, β-Sitosterol]",684 µM,competitive inhibitors,Ki ([2]; read-out: inhibition constant (Ki)): 48.4 µM; IC50 (α-glucosidase [3]): 287.1 ± 0.75 µM
429 µM,"CC[C@H](CC[C@@H](C)[C@H]1CC[C@H]2[C@@H]3CC=C4C[C@@H](O[C@@H]5O[C@H](CO)[C@@H](O)[C@H](O)[C@H]5O)CC[C@]4(C)[C@H]3CC[C@]12C)C(C)C [Compound 4, Daucosterol]",,competitive inhibitors,Ki ([2]; read-out: inhibition constant (Ki) (converted)): 4.06 µM
1550 µM,"C[C@H]1O[C@H](O[C@H]2[C@H](O)[C@@H](O)[C@@H](O[C@H]3[C@H](O)[C@@H](O)C(O)O[C@@H]3CO)O[C@@H]2CO)[C@H](O)[C@@H](O)[C@@H]1N[C@H]1C=C(CO)[C@@H](O)[C@H](O)[C@H]1O (stereo partly drawn) [Acarbose, reference compound]",,,"inhibition at 1500 µg/mL ([1]; at 1.5 mg/mL, read-out: percent inhibition against α-glucosidase): 56.4%"
,"COc1cc(C(=O)O)ccc1O [Compound 1, Vanillic acid]",11900 µM,,IC50 (α-glucosidase [4]): 69.4 ± 0.8 µM
